Data reported in PubChem BioAssay AID1259407 (Chemical Carcinogenesis Research Information System (CCRIS), 2018).
Activity calls are given as the source filed them. The rule behind the calls is not given here.

System: CCRIS mutagenicity, Ames/micronucleus/aberration tests
Assay: CCRIS mutagenicity studies
[1] = Test System: AMES SALMONELLA TYPHIMURIUM, Strain/Indicator: TA98, Metabolic Activation: NONE, Method: PREINCUBATION
[2] = Test System: AMES SALMONELLA TYPHIMURIUM, Strain/Indicator: TA100, Metabolic Activation: NONE, Method: PREINCUBATION
[3] = Test System: AMES SALMONELLA TYPHIMURIUM, Strain/Indicator: TA1535, Metabolic Activation: NONE, Method: PREINCUBATION
[4] = Test System: AMES SALMONELLA TYPHIMURIUM, Strain/Indicator: TA1537, Metabolic Activation: NONE, Method: PREINCUBATION

C=CCc1ccc(O)c(OC)c1
mutagenic call (End Point: IN VITRO CHROMOSOMAL ABERRATIONS, Test System: CHINESE HAMSTER OVARY CELLS, Metabolic Activation: NONE): inactive; negative
mutagenic call (End Point: IN VITRO CHROMOSOMAL ABERRATIONS, Test System: CHINESE HAMSTER OVARY CELLS, Metabolic Activation: RAT, LIVER, S-9, AROCLOR 1254): active; positive
mutagenic call (End Point: IN VITRO CHROMOSOMAL ABERRATIONS, Test System: CHO-WBL CELLS, Metabolic Activation: RAT, LIVER, S-9, PHENOBARBITAL AND BETA-NAPHTHOFLAVONE): active; positive (at 24 hr)
mutagenic call (End Point: IN VITRO CHROMOSOMAL ABERRATIONS, Test System: SYRIAN HAMSTER EMBRYO (SHE) CELLS, Metabolic Activation: NONE): active; positive (structural changes)
mutagenic call (End Point: IN VITRO CHROMOSOMAL ABERRATIONS, Test System: SYRIAN HAMSTER EMBRYO (SHE) CELLS, Metabolic Activation: RAT, LIVER, S-9): active; positive (structural changes)
mutagenic call (End Point: IN VIVO MICRONUCLEUS, Test System: BONE MARROW POLYCHROMATIC ERYTHROCYTES, Species: MOUSE, Strain/Sex: DDY/MALE, Route: IP): inactive; negative
mutagenic call (Test System: AMES SALMONELLA TYPHIMURIUM, Strain/Indicator: TA97, Metabolic Activation: NONE, Method: PREINCUBATION (120 MIN)): inactive; negative
mutagenic call (Test System: AMES SALMONELLA TYPHIMURIUM, Strain/Indicator: TA97, Metabolic Activation: S-9, Method: PREINCUBATION (120 MIN)): inactive; negative
mutagenic call (Test System: AMES SALMONELLA TYPHIMURIUM, Strain/Indicator: TA98, Metabolic Activation: HAMSTER, LIVER, S-9, AROCLOR 1254, Method: PREINCUBATION): inactive; negative
mutagenic call [1]: inactive; negative
mutagenic call (Test System: AMES SALMONELLA TYPHIMURIUM, Strain/Indicator: TA98, Metabolic Activation: NONE, Method: PREINCUBATION (120 MIN)): inactive; negative
mutagenic call (Test System: AMES SALMONELLA TYPHIMURIUM, Strain/Indicator: TA98, Metabolic Activation: NONE, Method: STANDARD PLATE): inactive; negative
mutagenic call (Test System: AMES SALMONELLA TYPHIMURIUM, Strain/Indicator: TA98, Metabolic Activation: RAT, LIVER, S-9, AROCLOR 1254, Method: PREINCUBATION): inactive; negative
mutagenic call (Test System: AMES SALMONELLA TYPHIMURIUM, Strain/Indicator: TA98, Metabolic Activation: RAT, LIVER, S-9, AROCLOR 1254, Method: STANDARD PLATE): inactive; negative
mutagenic call (Test System: AMES SALMONELLA TYPHIMURIUM, Strain/Indicator: TA98, Metabolic Activation: S-9, Method: PREINCUBATION (120 MIN)): inactive; negative
mutagenic call (Test System: AMES SALMONELLA TYPHIMURIUM, Strain/Indicator: TA98, Metabolic Activation: S-9, Method: STANDARD PLATE): inactive; negative
mutagenic call (Test System: AMES SALMONELLA TYPHIMURIUM, Strain/Indicator: TA100, Metabolic Activation: HAMSTER, LIVER, S-9, AROCLOR 1254, Method: PREINCUBATION): inactive; negative
mutagenic call [2]: inactive; negative
mutagenic call (Test System: AMES SALMONELLA TYPHIMURIUM, Strain/Indicator: TA100, Metabolic Activation: NONE, Method: PREINCUBATION (120 MIN)): inactive; negative
mutagenic call (Test System: AMES SALMONELLA TYPHIMURIUM, Strain/Indicator: TA100, Metabolic Activation: NONE, Method: STANDARD PLATE): inactive; negative
mutagenic call (Test System: AMES SALMONELLA TYPHIMURIUM, Strain/Indicator: TA100, Metabolic Activation: RAT, LIVER, S-9, AROCLOR 1254, Method: PREINCUBATION): inactive; negative
mutagenic call (Test System: AMES SALMONELLA TYPHIMURIUM, Strain/Indicator: TA100, Metabolic Activation: RAT, LIVER, S-9, AROCLOR 1254, Method: STANDARD PLATE): inactive; negative
mutagenic call (Test System: AMES SALMONELLA TYPHIMURIUM, Strain/Indicator: TA100, Metabolic Activation: S-9, Method: PREINCUBATION (120 MIN)): inactive; negative
mutagenic call (Test System: AMES SALMONELLA TYPHIMURIUM, Strain/Indicator: TA100, Metabolic Activation: S-9, Method: STANDARD PLATE): inactive; negative
mutagenic call (Test System: AMES SALMONELLA TYPHIMURIUM, Strain/Indicator: TA1535, Metabolic Activation: HAMSTER, LIVER, S-9, AROCLOR 1254, Method: PREINCUBATION): inactive; negative
mutagenic call [3]: inactive; negative
mutagenic call (Test System: AMES SALMONELLA TYPHIMURIUM, Strain/Indicator: TA1535, Metabolic Activation: NONE, Method: STANDARD PLATE): inactive; negative
mutagenic call (Test System: AMES SALMONELLA TYPHIMURIUM, Strain/Indicator: TA1535, Metabolic Activation: PAPS, Method: STANDARD PLATE): inactive; negative
mutagenic call (Test System: AMES SALMONELLA TYPHIMURIUM, Strain/Indicator: TA1535, Metabolic Activation: RAT, LIVER, S-9, AROCLOR 1254, PAPS, Method: STANDARD PLATE): active; positive
mutagenic call (Test System: AMES SALMONELLA TYPHIMURIUM, Strain/Indicator: TA1535, Metabolic Activation: RAT, LIVER, S-9, AROCLOR 1254, Method: PREINCUBATION): inactive; negative
mutagenic call (Test System: AMES SALMONELLA TYPHIMURIUM, Strain/Indicator: TA1535, Metabolic Activation: RAT, LIVER, S-9, AROCLOR 1254, Method: STANDARD PLATE): inactive; negative
mutagenic call (Test System: AMES SALMONELLA TYPHIMURIUM, Strain/Indicator: TA1537, Metabolic Activation: HAMSTER, LIVER, S-9, AROCLOR 1254, Method: PREINCUBATION): inactive; negative
mutagenic call [4]: inactive; negative
mutagenic call (Test System: AMES SALMONELLA TYPHIMURIUM, Strain/Indicator: TA1537, Metabolic Activation: NONE, Method: STANDARD PLATE): inactive; negative
mutagenic call (Test System: AMES SALMONELLA TYPHIMURIUM, Strain/Indicator: TA1537, Metabolic Activation: RAT, LIVER, S-9, AROCLOR 1254, Method: PREINCUBATION): inactive; negative
mutagenic call (Test System: AMES SALMONELLA TYPHIMURIUM, Strain/Indicator: TA1537, Metabolic Activation: RAT, LIVER, S-9, AROCLOR 1254, Method: STANDARD PLATE): inactive; negative
mutagenic call (Test System: AMES SALMONELLA TYPHIMURIUM, Strain/Indicator: TA1538, Metabolic Activation: NONE, Method: STANDARD PLATE): inactive; negative
mutagenic call (Test System: AMES SALMONELLA TYPHIMURIUM, Strain/Indicator: TA1538, Metabolic Activation: RAT, LIVER, S-9, AROCLOR 1254, Method: STANDARD PLATE): inactive; negative
mutagenic call (Test System: MOUSE LYMPHOMA, Strain/Indicator: L5178Y (TK+/TK-), Metabolic Activation: NONE, Method: MICROWELL): active; positive
mutagenic call (Test System: MOUSE LYMPHOMA, Strain/Indicator: L5178Y (TK+/TK-), Metabolic Activation: S-9, Method: MICROWELL): active; positive

C[O+](C)C.[Cl][Sb-]([Cl])([Cl])([Cl])([Cl])[Cl]
mutagenic call [1]: inactive; negative
mutagenic call (Test System: AMES SALMONELLA TYPHIMURIUM, Strain/Indicator: TA98, Metabolic Activation: RAT, LIVER, S-9, AROCLOR 1254 (10%), Method: PREINCUBATION): inactive; negative
mutagenic call [2]: inactive; negative
mutagenic call (Test System: AMES SALMONELLA TYPHIMURIUM, Strain/Indicator: TA1535, Metabolic Activation: HAMSTER, LIVER, S-9, AROCLOR 1254 (10%), Method: PREINCUBATION): inactive; negative
mutagenic call [3]: inactive; negative
mutagenic call (Test System: AMES SALMONELLA TYPHIMURIUM, Strain/Indicator: TA1535, Metabolic Activation: RAT, LIVER, S-9, AROCLOR 1254 (10%), Method: PREINCUBATION): inactive; negative
mutagenic call (Test System: AMES SALMONELLA TYPHIMURIUM, Strain/Indicator: TA1537, Metabolic Activation: HAMSTER, LIVER, S-9, AROCLOR 1254 (10%), Method: PREINCUBATION): inactive; negative
mutagenic call [4]: inactive; negative
mutagenic call (Test System: AMES SALMONELLA TYPHIMURIUM, Strain/Indicator: TA1537, Metabolic Activation: RAT, LIVER, S-9, AROCLOR 1254 (10%), Method: PREINCUBATION): inactive; negative
mutagenic call (Test System: MOUSE LYMPHOMA, Strain/Indicator: L5178Y (TK+/TK-), Metabolic Activation: RAT, LIVER, S-9, AROCLOR 1254, Method: SUSPENSION/PLATE): active; positive. reevaluation of results: positive
mutagenic call (Test System: Mouse lymphoma, Strain/Indicator: L5178Y (tk+/tk-), Metabolic Activation: None, Method: Suspension/plate): inactive; negative
